Experimental data reported in patent US20220220135A1 (BAR-ILAN UNIVERSITY, priority 2019, published 2022).
Values joined by “and” are separate entries in the source; they are usually repeats but may differ in a detail not shown here. Equal values may be shown once.

Legend:
NTPDase1 = target: T1, NTPDase1 (Homo sapiens, UniProt P49961); assay: Stability to hydrolysis by human NTPDase1; type: in vitro ADME; settings: analogue 100 μM; activity with 100 μM ATP = 100%
T1 sequence (P49961 1-510): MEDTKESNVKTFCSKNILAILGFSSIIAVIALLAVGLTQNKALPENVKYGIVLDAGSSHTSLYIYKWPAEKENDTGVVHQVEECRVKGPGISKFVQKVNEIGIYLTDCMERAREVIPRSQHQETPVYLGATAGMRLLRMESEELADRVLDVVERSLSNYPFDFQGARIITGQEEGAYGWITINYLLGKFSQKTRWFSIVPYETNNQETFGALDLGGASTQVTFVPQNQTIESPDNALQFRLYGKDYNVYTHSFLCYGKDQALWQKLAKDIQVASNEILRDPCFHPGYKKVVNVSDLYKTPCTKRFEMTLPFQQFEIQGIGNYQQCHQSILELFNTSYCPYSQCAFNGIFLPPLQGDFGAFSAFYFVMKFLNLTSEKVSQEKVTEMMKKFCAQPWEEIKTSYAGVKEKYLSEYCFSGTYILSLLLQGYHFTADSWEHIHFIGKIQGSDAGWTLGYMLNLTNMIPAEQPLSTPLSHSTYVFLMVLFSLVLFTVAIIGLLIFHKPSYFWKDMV
Description: (§1) Uridine 5′-Pα,α-phosphorodithioate analogues, 9-12, were tested for their stability to degradation by NPP1 and NTPDases. These enzymes are involved in the metabolism of extracellular nucleotides. Analogues 9-12 were not hydrolyzed by hNPP1 (Table 2). […] Analogue 10 was hydrolyzed by hNTPDase1, -2 and -3 at 30-39% the rate of ATP and was slightly hydrolyzed by human NTPDase8 at 16% the rate of ATP.
(§2) Analogues 9-12 were incubated in the presence of the indicated ectonucleotidase at a concentration of 100 μM. The activity with 100 μM ATP was set as 100%, which was 329±108, 302±34, 263±51, 195±76 nmol of Pi·min−1·mg of protein−1 for NTPDase1, -2, -3 and -8, respectively, and 34±7 nmol for NPP1. Data presented are the mean±SEM of results from two experiments.

NTPDase2 = target: T2, NTPDase2 (Homo sapiens, UniProt Q9Y5L3); assay: Stability to hydrolysis by human NTPDase2; type: in vitro ADME; settings: analogue 100 μM; activity with 100 μM ATP = 100%
T2 sequence (Q9Y5L3 1-495): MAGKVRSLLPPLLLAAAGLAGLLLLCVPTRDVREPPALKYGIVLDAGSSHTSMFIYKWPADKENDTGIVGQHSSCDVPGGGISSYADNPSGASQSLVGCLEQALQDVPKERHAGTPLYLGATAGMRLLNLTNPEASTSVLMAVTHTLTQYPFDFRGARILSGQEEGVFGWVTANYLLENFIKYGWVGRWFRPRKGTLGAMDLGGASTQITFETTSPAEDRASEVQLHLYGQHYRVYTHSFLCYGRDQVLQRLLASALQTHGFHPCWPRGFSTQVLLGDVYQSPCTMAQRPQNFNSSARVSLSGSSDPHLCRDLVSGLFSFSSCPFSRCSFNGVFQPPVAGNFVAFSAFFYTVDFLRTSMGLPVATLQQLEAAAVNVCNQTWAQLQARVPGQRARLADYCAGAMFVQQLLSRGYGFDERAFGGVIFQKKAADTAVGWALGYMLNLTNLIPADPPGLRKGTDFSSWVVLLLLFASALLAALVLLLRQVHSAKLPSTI
Description: as §1, §2

NTPDase8 = target: T3, NTPDase8 (Homo sapiens, UniProt Q5MY95); assay: Stability to hydrolysis by human NTPDase8; type: in vitro ADME; settings: analogue 100 μM; activity with 100 μM ATP = 100%
T3 sequence (Q5MY95 1-495): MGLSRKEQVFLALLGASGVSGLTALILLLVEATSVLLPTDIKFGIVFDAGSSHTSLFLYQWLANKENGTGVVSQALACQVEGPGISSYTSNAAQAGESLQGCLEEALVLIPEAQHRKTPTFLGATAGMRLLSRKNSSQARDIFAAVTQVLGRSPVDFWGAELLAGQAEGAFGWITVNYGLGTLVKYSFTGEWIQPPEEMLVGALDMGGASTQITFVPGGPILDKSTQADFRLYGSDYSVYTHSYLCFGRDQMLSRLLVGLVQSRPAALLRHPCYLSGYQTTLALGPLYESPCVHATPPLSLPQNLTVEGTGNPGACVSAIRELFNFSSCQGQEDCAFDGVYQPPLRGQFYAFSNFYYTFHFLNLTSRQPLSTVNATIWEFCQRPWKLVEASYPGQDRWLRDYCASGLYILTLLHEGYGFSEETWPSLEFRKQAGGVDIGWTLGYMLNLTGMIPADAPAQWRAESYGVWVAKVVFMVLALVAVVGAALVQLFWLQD
Description: as §1, §2

NTPDase3 = target: T4, NTPDase3 (Homo sapiens, UniProt O75355); assay: Stability to hydrolysis by human NTPDase3; type: in vitro ADME; settings: analogue 100 μM; activity with 100 μM ATP = 100%
T4 sequence (O75355 1-529): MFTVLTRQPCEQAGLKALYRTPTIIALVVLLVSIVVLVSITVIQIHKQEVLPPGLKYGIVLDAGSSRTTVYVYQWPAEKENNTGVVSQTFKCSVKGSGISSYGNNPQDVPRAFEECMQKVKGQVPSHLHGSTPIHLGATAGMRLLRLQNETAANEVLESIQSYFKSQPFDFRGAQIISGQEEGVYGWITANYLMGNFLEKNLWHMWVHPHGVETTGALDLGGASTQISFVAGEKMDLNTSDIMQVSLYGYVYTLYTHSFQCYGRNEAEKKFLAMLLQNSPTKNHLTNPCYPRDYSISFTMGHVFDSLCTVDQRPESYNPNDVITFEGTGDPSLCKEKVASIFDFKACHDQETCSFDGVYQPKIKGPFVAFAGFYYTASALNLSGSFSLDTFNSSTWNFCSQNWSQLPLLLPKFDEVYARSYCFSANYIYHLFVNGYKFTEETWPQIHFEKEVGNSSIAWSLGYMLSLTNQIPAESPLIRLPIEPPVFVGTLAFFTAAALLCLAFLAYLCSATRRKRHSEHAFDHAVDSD
Description: as §1, §2

human P2Y2R = target: T5, human P2Y2R (Homo sapiens, UniProt P41231); assay: Calcium mobilization in 1321N1 astrocytoma cells expressing human P2Y2R; type: cell-based
T5 construct: expressed in transfected cells; host or cells: 1321N1 astrocytoma cells
T5 sequence (P41231 whole entry): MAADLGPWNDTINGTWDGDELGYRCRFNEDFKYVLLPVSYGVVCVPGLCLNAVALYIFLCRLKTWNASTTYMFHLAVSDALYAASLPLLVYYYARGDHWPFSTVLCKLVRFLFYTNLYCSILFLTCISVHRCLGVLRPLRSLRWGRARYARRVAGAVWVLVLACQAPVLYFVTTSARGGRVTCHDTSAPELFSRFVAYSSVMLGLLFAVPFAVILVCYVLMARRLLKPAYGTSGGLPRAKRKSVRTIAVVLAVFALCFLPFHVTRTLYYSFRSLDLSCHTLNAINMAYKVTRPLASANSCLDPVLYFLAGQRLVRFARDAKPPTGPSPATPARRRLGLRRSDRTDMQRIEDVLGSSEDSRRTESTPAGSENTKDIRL
Description: (§3) Given the structural resemblance of 106-109 to the natural ligands of P2Y receptors, adenine and uracil nucleotides as natural substrates, were assessed for agonist potency on the human P2Y1, P2Y2, P2Y4, and P2Y6 receptor. To evaluate NPP1 selectivity of analogs 106-109, they were tested for their ability to activate of the uridine-nucleotide sensitive human recombinant P2Y1,2,4,6-receptors. The agonist potencies of this series of nucleotide analogues on the Gq protein-coupled human P2Y1R, P2Y2R, P2Y4R, and P2Y6R was determined by assessing its ability to induce calcium mobilization in stably transfected 1321N1 astrocytoma cells (Table 8). The nucleotide analogues were found in calcium mobilization assays to activate the P2Y2R with mid-micromolar potency.

human P2Y4R = target: T6, human P2Y4R (Homo sapiens, UniProt P51582); assay: Calcium mobilization in 1321N1 astrocytoma cells expressing human P2Y4R; type: cell-based
T6 construct: expressed in transfected cells; host or cells: 1321N1 astrocytoma cells
T6 sequence (P51582 whole entry): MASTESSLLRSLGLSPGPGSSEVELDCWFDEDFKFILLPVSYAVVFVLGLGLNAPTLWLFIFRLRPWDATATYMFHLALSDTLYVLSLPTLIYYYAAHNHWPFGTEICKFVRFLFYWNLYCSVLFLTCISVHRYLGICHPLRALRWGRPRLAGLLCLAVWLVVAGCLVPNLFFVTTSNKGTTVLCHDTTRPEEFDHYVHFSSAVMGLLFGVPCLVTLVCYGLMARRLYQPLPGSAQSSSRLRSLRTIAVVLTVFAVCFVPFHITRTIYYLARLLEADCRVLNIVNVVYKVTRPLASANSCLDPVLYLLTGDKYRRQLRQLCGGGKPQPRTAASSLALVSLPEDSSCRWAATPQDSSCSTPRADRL
Description: as §3

O=c1ccn([C@@H]2O[C@H](COP(=S)(S)OP(=O)(O)OP(=O)(O)O)[C@@H](O)[C@H]2O)c(=O)[nH]1 (stereo partly drawn) [Analogue 10]
Relative activity (%) ± SEM of ATP hydrolysis, NTPDase1 (NTPDase1): 30.8 ± 3.2%
Relative activity (%) ± SEM of ATP hydrolysis, NTPDase2 (NTPDase2): 32.0 ± 3.3%
Relative activity (%) ± SEM of ATP hydrolysis, NTPDase8 (NTPDase8): 16% and 16.5 ± 2.8%
Relative activity (%) ± SEM of ATP hydrolysis, NTPDase3 (NTPDase3): 39.7 ± 1.9%

Nc1ncnc2c1ncn2COCCOP(=S)(S)OP(=O)(O)O (stereo not drawn) [compound 106]
% activation at 10 μM, P2Y2 (human P2Y2R): 32 ± 18%
% activation at 10 μM, P2Y4 (human P2Y4R): 0 ± 0%
